In patent publication US20250302043A1, “BIOCIDE FORMULATIONS FOR THE PRESERVATION OF ANALYTE DETECTION SENSOR(S) AND METHOD(S) OF USE AND THEREOF” (Siemens Healthcare Diagnostics Inc., priority 2019, published 2025):

How the values were obtained:
[1] = system: bacteria (including S. aureus, E. coli, P. aeruginosa, and C. maltaromaticum) and fungi (including, C. albicans, A. niger, and Penicillium sp.); experiment: Biocide efficacy: concentrations (CFU per milliliter) of contaminants over time on plates treated with biocide; format: cell-based; details: for decrease or elimination of the bacteria and/or fungi contaminants: plates
Source text: FIG. 3 is a graphical plot showing the concentrations (measured in CFU per milliliter) of various contaminants (y-axis), such as, by way of example only, bacteria and fungi, over a period of time in weeks (x-axis) on plates treated with a concentration of about 20 ppm hexahydro 1,3,5-tris(2-hydroxy ethyl)-S-triazine (“Onyxide200”) biocide in accordance with the presently disclosed and/or claimed inventive concept(s).
FIG. 4A is a graphical plot showing the concentrations (measured in CFU per milliliter) of various contaminants (y-axis), such as, by way of example only, bacteria and fungi, over a period of time in weeks (x-axis) on plates treated with a concentration of about 5 ppm of 5-chloro-2-methylisothiazol-3(2H)-one (“Cl-MlT”) biocide in accordance with the presently disclosed and/or claimed inventive concept(s).
FIG. 5A is a graphical plot showing the concentrations (measured in CFU per milliliter) of various contaminants (y-axis), such as, by way of example only, bacteria and fungi, over a period of time in weeks (x-axis) on plates treated with a combination of concentrations of about 20 ppm of Onyxide200 biocide and about 4 ppm of Cl-MlT biocide in accordance with the presently disclosed and/or claimed inventive concept(s).
Referring now to FIG. 3, shown therein is a graphical plot showing the concentrations (measured in CFU per milliliter) of various contaminants (y-axis), such as, by way of example only, bacteria (including S. aureus, E. coli, P. aeruginosa, and C. maltaromaticum) and fungi (including, C. albicans, A. niger, and Penicillium sp.) over a period of five weeks (x-axis) on plates treated with a concentration of about 20 ppm of the individual aqueous biocide Onyxide200 in accordance with the presently disclosed and/or claimed inventive concept(s). […]
Referring now to FIG. 5A, shown therein is a graphical plot showing the concentrations (measured in CFU per milliliter) of various contaminants (y-axis), such as, by way of example only, bacteria (including S. aureus, E. coli, P. aeruginosa, and C. maltaromaticum) and fungi (including, C. albicans, A. niger, and Penicillium sp.) over a period of six weeks (x-axis) on plates treated with a combined aqueous biocide formulation comprising concentrations of about 20 ppm of Onyxide200 biocide and about 4 ppm of Cl-MlT biocide in accordance with the presently disclosed and/or claimed inventive concept(s). […] This is synergistic effect allows for a significant increase in the formulation's efficacy for contaminant removal over the individual component biocides (Onyxide200 and Cl-MlT) which comprise the formulation.

[2] = system: creatinase enzyme of creatinine detection sensors; experiment: Inactivation of the enzyme of creatinine detection sensors after exposure to biocide; format: biochemical; details: individual biocide; creatinine detection sensor; 'in as little as'
Source text: Biocides are often used to preserve the at least one analyte detection sensor(s) of a sensor array present in a blood gas, electrolyte, and/or metabolite instrument. However, when such analyte detection sensor(s) is a creatinine detection sensor(s), these biocides inactivate some or all of the enzymes present on and/or in the creatinine sensor(s). In the context of creatinine sensors, such sensors rely on enzymes containing free sulfhydryl groups (—SH) for the proper and continuous functioning of the sensors. Such free sulfhydryl groups chemically react with certain species of biocide(s) (such as, Cl-MlT) that result in the inactivation of the creatinine sensor's(s′) enzymes, thereby resulting in decreased (or total loss) of functional utility and/or functional life of the creatinine sensor(s). Such inactivation can occur very rapidly. […]
Referring now to FIG. 4A, shown therein is a graphical plot showing the concentrations (measured in CFU per milliliter) of various contaminants (y-axis), such as, by way of example only, bacteria (including S. aureus, E. coli, P. aeruginosa, and C. maltaromaticum) and fungi (including, C. albicans, A. niger, and Penicillium sp.) over a period of six weeks (x-axis) on plates treated with a concentration of about 5 ppm of the individual aqueous biocide Cl-MlT in accordance with the presently disclosed and/or claimed inventive concept(s).

SMILES	week of plating at which decrease and/or elimination was obtained for some contaminants ([1]; about 1 ppm individual aqueous biocide, FIG. 4B)	decrease or elimination of the bacteria and/or fungi contaminants ([1]; about 1 ppm individual aqueous biocide, six weeks, FIG. 4B)	week after plating at which decrease and/or elimination was obtained for some contaminants ([1]; about 5 ppm individual aqueous biocide, FIG. 4A)	decrease or elimination of the bacteria and/or fungi contaminants ([1]; about 5 ppm individual aqueous biocide, six weeks, FIG. 4A)	time after exposure at which inactivation of the enzyme occurs [2]	decrease or elimination of the bacteria and/or fungi contaminants ([1]; about 20 ppm individual aqueous biocide, five weeks, FIG. 3)
Cn1sc(Cl)cc1=O [Cl-MlT, 5-chloro-2-methylisothiazol-3(2H)-one]	> 6 week	eventually resulted in a decrease or elimination of only some of the bacteria and/or fungi contaminants	5 week	eventually resulted in a decrease or elimination of the bacteria and/or fungi contaminants	1 to 4 days	
OCCN1CN(CCO)CN(CCO)C1 [Onyxide200, hexahydro 1,3,5-tris(2-hydroxyethyl)-S-triazine]						did not result in a substantial decrease or elimination of the bacteria and/or fungi contaminants
